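Each compound was tested at five concentrations against cells in 96-well plates for 48 hours. GI50 marks 50% less growth.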 The source made the active and inactive calls. Rule as the data show it: active = GI50 up to about 1.1 µM and inactive = higher.
Key:
Test in all cases: DTP human tumour cell line panel, 48 h
[1] = test system: RXF 393
[2] = test system: NCI-H226
[3] = test system: NCI-H522
[4] = test system: SW-620
[5] = test system: LOX IMVI
[6] = test system: A549
[7] = test system: HOP-92
[8] = test system: HOP-62
[9] = test system: NCI-H460
[10] = test system: SN12C
[11] = test system: DMS-114
[12] = test system: HL-60
[13] = test system: CAKI-1
[14] = test system: SF-295
[15] = test system: SNB-19
[16] = test system: EKVX
[17] = test system: RPMI-8226
[18] = test system: SK-MEL-5
[19] = test system: SK-OV-3
[20] = test system: Malme-3M
[21] = test system: UACC-62
[22] = test system: SF-268
[23] = test system: M14
[24] = test system: DLD-1
[25] = test system: A498
[26] = test system: KM12
[27] = test system: UACC-257
[28] = test system: SK-MEL-28
[29] = test system: COLO 205
[30] = test system: HOP-18
[31] = test system: 786-0
[32] = test system: UO-31
[33] = test system: MOLT-4
[34] = test system: OVCAR-8
[35] = test system: CCRF-CEM
[36] = test system: U-251
[37] = test system: SNB-78
[38] = test system: HT-29
[39] = test system: OVCAR-3
[40] = test system: HCC 2998
[41] = test system: LXFL 529
[42] = test system: SR
[43] = test system: IGROV-1
[44] = test system: HCT-15
[45] = test system: SNB-75
[46] = test system: KM-20L2
[47] = test system: TK-10
[48] = test system: NCI-H23
[49] = test system: OVCAR-4
[50] = test system: K562
[51] = test system: HCT-116
[52] = test system: OVCAR-5
[53] = test system: ACHN
[54] = test system: SK-MEL-2
[55] = test system: SF-539
[56] = test system: DMS-273
[57] = test system: M19-MEL
[58] = test system: BT-549
[59] = test system: MCF7
[60] = test system: DU-145
[61] = test system: MDA-MB-231
[62] = test system: Hs-578T
[63] = test system: MDA-N
[64] = test system: XF498
[65] = test system: PC-3
[66] = test system: NCI/ADR-RES
[67] = test system: T47D
[68] = test system: MDA-MB-435

COc1cccc(NC(=O)CC(=O)N2N=C(N(CCC#N)c3ccc(Cl)cc3)CC2c2ccccc2)c1 (centres undefined)
GI50 [1]: > 100 µM (inactive) | GI50 [2]: > 100 µM (inactive) | GI50 [3]: > 100 µM (inactive) | GI50 [4]: > 100 µM (inactive) | GI50 [5]: > 100 µM (inactive) | GI50 [6]: > 100 µM (inactive) | GI50 [7]: > 100 µM (inactive) | GI50 [8]: > 100 µM (inactive) | GI50 [9]: > 100 µM (inactive) | GI50 [10]: > 100 µM (inactive) | GI50 [11]: > 100 µM (inactive) | GI50 [12]: > 100 µM (inactive) | GI50 [13]: > 100 µM (inactive) | GI50 [14]: > 100 µM (inactive) | GI50 [15]: > 100 µM (inactive) | GI50 [16]: > 100 µM (inactive) | GI50 [17]: > 100 µM (inactive) | GI50 [18]: > 100 µM (inactive) | GI50 [19]: > 100 µM (inactive) | GI50 [20]: > 100 µM (inactive) | GI50 [21]: > 100 µM (inactive) | GI50 [22]: > 100 µM (inactive) | GI50 [23]: > 100 µM (inactive) | GI50 [24]: > 100 µM (inactive) | GI50 [25]: > 100 µM (inactive) | GI50 [26]: > 100 µM (inactive) | GI50 [27]: > 100 µM (inactive) | GI50 [28]: > 100 µM (inactive) | GI50 [29]: > 100 µM (inactive) | GI50 [30]: > 100 µM (inactive) | GI50 [31]: > 100 µM (inactive) | GI50 [32]: > 100 µM (inactive) | GI50 [33]: > 100 µM (inactive) | GI50 [34]: > 100 µM (inactive) | GI50 [35]: > 100 µM (inactive) | GI50 [36]: > 100 µM (inactive) | GI50 [37]: > 100 µM (inactive) | GI50 [38]: > 100 µM (inactive) | GI50 [39]: > 100 µM (inactive) | GI50 [40]: > 100 µM (inactive) | GI50 [41]: > 100 µM (inactive) | GI50 [42]: > 100 µM (inactive) | GI50 [43]: > 100 µM (inactive) | GI50 [44]: > 100 µM | GI50 [45]: > 100 µM (inactive) | GI50 [46]: > 100 µM (inactive) | GI50 [47]: > 100 µM (inactive) | GI50 [48]: > 100 µM (inactive) | GI50 [49]: > 100 µM (inactive) | GI50 [50]: > 100 µM (inactive) | GI50 [51]: > 100 µM (inactive) | GI50 [52]: > 100 µM (inactive) | GI50 [53]: > 100 µM (inactive) | GI50 [54]: > 100 µM (inactive) | GI50 [55]: > 100 µM (inactive) | GI50 [56]: > 100 µM (inactive) | GI50 [57]: > 100 µM (inactive)

CCOC(=O)C(=O)Nc1nc2ccc(OC)cc2s1
GI50 [2]: > 100 µM (inactive) | GI50 [3]: > 10 µM (inactive) | GI50 [4]: > 100 µM (inactive) | GI50 [5]: > 100 µM (inactive) | GI50 [6]: > 100 µM (inactive) | GI50 [7]: > 100 µM (inactive) | GI50 [8]: > 100 µM (inactive) | GI50 [9]: > 100 µM (inactive) | GI50 [10]: > 100 µM (inactive) | GI50 [12]: > 100 µM (inactive) | GI50 [13]: > 100 µM (inactive) | GI50 [14]: > 100 µM (inactive) | GI50 [15]: > 100 µM (inactive) | GI50 [16]: > 100 µM (inactive) | GI50 [17]: > 100 µM (inactive) | GI50 [18]: > 100 µM (inactive) | GI50 [19]: > 100 µM (inactive) | GI50 [20]: > 100 µM (inactive) | GI50 [21]: > 100 µM (inactive) | GI50 [22]: > 100 µM (inactive) | GI50 [23]: > 100 µM (inactive) | GI50 [24]: > 100 µM (inactive) | GI50 [25]: > 100 µM (inactive) | GI50 [26]: > 100 µM (inactive) | GI50 [27]: > 100 µM (inactive) | GI50 [28]: > 100 µM (inactive) | GI50 [29]: > 100 µM (inactive) | GI50 [30]: > 100 µM (inactive) | GI50 [31]: > 100 µM (inactive) | GI50 [32]: > 100 µM (inactive) | GI50 [33]: > 100 µM (inactive) | GI50 [34]: > 100 µM (inactive) | GI50 [35]: > 100 µM (inactive) | GI50 [36]: > 100 µM (inactive) | GI50 [37]: > 100 µM (inactive) | GI50 [38]: > 100 µM (inactive) | GI50 [39]: > 100 µM (inactive) | GI50 [40]: > 100 µM (inactive) | GI50 [41]: > 100 µM (inactive) | GI50 [43]: > 100 µM (inactive) | GI50 [44]: > 100 µM | GI50 [45]: > 100 µM (inactive) | GI50 [46]: > 100 µM (inactive) | GI50 [47]: > 100 µM (inactive) | GI50 [48]: > 100 µM (inactive) | GI50 [49]: > 100 µM (inactive) | GI50 [50]: > 100 µM (inactive) | GI50 [52]: > 100 µM (inactive) | GI50 [53]: > 100 µM (inactive) | GI50 [54]: > 100 µM (inactive) | GI50 [55]: > 100 µM (inactive) | GI50 [56]: > 100 µM (inactive) | GI50 [57]: > 100 µM (inactive)

COc1cccc2c1C(CO)N1C(C#N)C3CC(C(=O)O)C(C1C2)N3C (centres undefined)
GI50 [1]: 1.27 µM (inactive) | GI50 [58]: 0.213 µM (active) | GI50 [3]: 0.0615 µM (active) | GI50 [4]: 2.71 µM (inactive) | GI50 [5]: 1.95 µM (inactive) | GI50 [6]: 7.52 µM (inactive) | GI50 [7]: 1.99 µM (inactive) | GI50 [59]: 0.272 µM (active) | GI50 [9]: 5.19 µM (inactive) | GI50 [10]: 1.64 µM (inactive) | GI50 [11]: 2.21 µM (inactive) | GI50 [12]: 1.52 µM (inactive) | GI50 [13]: 1.29 µM (inactive) | GI50 [14]: 4.7 µM (inactive) | GI50 [15]: 2.62 µM (inactive) | GI50 [60]: 0.481 µM (active) | GI50 [16]: 6.19 µM (inactive) | GI50 [17]: 1.15 µM (inactive) | GI50 [18]: 1.69 µM (inactive) | GI50 [19]: 3.6 µM (inactive) | GI50 [61]: 0.15 µM (active) | GI50 [20]: 1.92 µM (inactive) | GI50 [21]: 1.16 µM (inactive) | GI50 [22]: 1.85 µM (inactive) | GI50 [23]: 4.37 µM (inactive) | GI50 [62]: 0.238 µM (active) | GI50 [63]: 0.273 µM (active) | GI50 [24]: 2.79 µM (inactive) | GI50 [25]: 2.77 µM (inactive) | GI50 [26]: 1.98 µM (inactive) | GI50 [27]: 1.66 µM (inactive) | GI50 [28]: 1.56 µM (inactive) | GI50 [29]: 1.26 µM (inactive) | GI50 [31]: 1.3 µM (inactive) | GI50 [32]: 1.59 µM (inactive) | GI50 [33]: 1.48 µM (inactive) | GI50 [34]: 1.68 µM (inactive) | GI50 [35]: 1.1 µM (active) | GI50 [36]: 1.52 µM (inactive) | GI50 [37]: 2.81 µM (inactive) | GI50 [38]: 1.64 µM (inactive) | GI50 [64]: 1.61 µM (inactive) | GI50 [39]: 1.23 µM (inactive) | GI50 [40]: 0.405 µM (active) | GI50 [41]: 2.56 µM (inactive) | GI50 [65]: 0.331 µM (active) | GI50 [42]: 2.08 µM (inactive) | GI50 [44]: 1.43 µM | GI50 [45]: 1.6 µM (inactive) | GI50 [46]: 3.33 µM (inactive) | GI50 [47]: 2.11 µM (inactive) | GI50 [66]: 0.367 µM (active) | GI50 [67]: 0.324 µM (active) | GI50 [48]: 1.57 µM (inactive) | GI50 [49]: 4.91 µM (inactive) | GI50 [50]: 1.63 µM (inactive) | GI50 [51]: 1.69 µM (inactive) | GI50 [52]: 2.85 µM (inactive) | GI50 [68]: 0.349 µM (active) | GI50 [53]: 3.36 µM (inactive) | GI50 [54]: 1.21 µM (inactive) | GI50 [55]: 1.41 µM (inactive) | GI50 [56]: 2.77 µM (inactive) | GI50 [57]: 3.54 µM (inactive)

O=c1n(CCCCn2c(=O)n(CC3CS3)c3ccccc32)c2ccccc2n1CC1CS1 (centres undefined)
GI50 [3]: 16.6 µM (inactive) | GI50 [4]: 18.6 µM (inactive) | GI50 [5]: 3.14 µM (inactive) | GI50 [7]: 23.9 µM (inactive) | GI50 [8]: 22.3 µM (inactive) | GI50 [10]: 14.1 µM (inactive) | GI50 [11]: > 10 µM (inactive) | GI50 [12]: 2.17 µM (inactive) | GI50 [13]: 17.3 µM (inactive) | GI50 [16]: 24.3 µM (inactive) | GI50 [17]: 10.9 µM (inactive) | GI50 [19]: 58.1 µM (inactive) | GI50 [20]: 10.5 µM (inactive) | GI50 [21]: > 10 µM (inactive) | GI50 [22]: 24.9 µM (inactive) | GI50 [23]: 8.99 µM (inactive) | GI50 [26]: 11.4 µM (inactive) | GI50 [29]: 19 µM (inactive) | GI50 [33]: 1.95 µM (inactive) | GI50 [35]: 17.1 µM (inactive) | GI50 [64]: 6.56 µM (inactive) | GI50 [39]: 10.4 µM (inactive) | GI50 [40]: 19.7 µM (inactive) | GI50 [41]: 14.3 µM (inactive) | GI50 [42]: 3.87 µM (inactive) | GI50 [43]: 13.5 µM (inactive) | GI50 [44]: 18.2 µM | GI50 [45]: 26.1 µM (inactive) | GI50 [49]: 15.5 µM (inactive) | GI50 [50]: 15.7 µM (inactive) | GI50 [51]: 18.7 µM (inactive) | GI50 [53]: 25.1 µM (inactive) | GI50 [54]: 11.9 µM (inactive) | GI50 [56]: 19.2 µM (inactive) | GI50 [57]: 19.2 µM (inactive)

Reference: ChEMBL document CHEMBL1201862, “PubChem BioAssay data set” (2004)
